Data taken from patent publication US20220259167A1 (UNIVERSITY HEALTH NETWORK, priority 2019, published 2022).
Read-outs that look alike come from different tables or passages of the source.

Columns and labels:
SH-SY5Y = assay: Neurotoxicity (Ntox) assay: SH-SY5Y viability after supernatant from activated differentiated THP-1 cells; assay type: cell-based, human; settings: 25 μM compound on THP-1; SH-SY5Y viability 72 h post-addition of supernatant
Source text: This study used differentiated (using phorbol myristate acetate, PMA) human acute monocytic leukemia cells, THP-1, cultured in RPMI 1640 medium supplemented with additives. Earlier studies with THP-1 cell line indicate that upon LPS/IFNγ activation, these cells release neurotoxic factors [Cheung Y T, et al. Neurotoxicology. 2009; 30(1):127-35]. These are remarkably plastic cells, which can potentially polarize to multiple cell lineages on the application of specific stimuli. On treatment with PMA, the suspension (floating cells) mature to a highly adherent phenotype with increased phagocytic ability (macrophage/microglia like). Typically, after PMA differentiation THP-1 monocytes, display increased cell surface expression of CD11b and CD14. PMA differentiated macrophage/microglia with a combination of LPS/IFNγ/amyloid beta peptide were used to activate the cells; and small synthetic molecules were tested. The cell-free supernatant generated from microglia were then transferred to previously mature neuronal cells lines.
Seed (0.5×10^6) THP-1 cells in each well of a 12-well tissue culture plate in warm complete growth medium up to 500 μl to 1 ml per well. […]

[1] = target: biotinylated amyloid-beta(1-42) (bioAbeta42) (Homo sapiens, UniProt P05067); assay type: biochemical; settings: Example 5; ND = inhibition activity not detected over 200 μM; read-out: Inhibition of Aβ oligomerization, μM IC50
Sequence of biotinylated amyloid-beta(1-42) (bioAbeta42) (P05067 672-713): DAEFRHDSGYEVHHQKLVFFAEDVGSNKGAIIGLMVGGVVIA

Aβ 1-40 = Aβ 1-40 (Homo sapiens, UniProt P05067); assay: Aβ ThT aggregation (fibrillization) assay; assay type: biochemical
Sequence of Aβ 1-40 (P05067 672-711): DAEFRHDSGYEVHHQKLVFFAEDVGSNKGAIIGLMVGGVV

[2] = system: differentiated THP-1 cells; assay: Anti-inflammatory cytokine levels (M2 indicators) during neurotoxicity assay; assay type: cell-based, human; settings: FIG. 6
Source text: This study used differentiated (using phorbol myristate acetate, PMA) human acute monocytic leukemia cells, THP-1, cultured in RPMI 1640 medium supplemented with additives. […] On treatment with PMA, the suspension (floating cells) mature to a highly adherent phenotype with increased phagocytic ability (macrophage/microglia like). Typically, after PMA differentiation THP-1 monocytes, display increased cell surface expression of CD11b and CD14. PMA differentiated macrophage/microglia with a combination of LPS/IFNγ/amyloid beta peptide were used to activate the cells; and small synthetic molecules were tested. The cell-free supernatant generated from microglia were then transferred to previously mature neuronal cells lines. The THP-1 monocytes should have adhered to the plate by now; these are defined as M0 macrophages. Remove the differentiating medium containing PMA and add the Experimental medium with stimulants at a final concentration of IFNγ 400 ng/ml and LPS 1 μg/ml. These stimulants are the first stimulus for the conversion into M1 macrophages. Keep the first stimulus on for three hours and add 25 μM of compounds in the required wells (This is aimed at converting M1→M2 macrophages/microglia like cells). […]

SIM-A9 cells = assay: Anti-inflammation assay: TNF-α production from LPS stimulated SIM-A9 cells (ELISA); assay type: cell-based
[3] = compound at 100 μM, Example 5, versus DMSO control, read-out: Inhibition of Aβ fibrillization at concentration 100 μM, Inhibition %
[4] = read-out: Inhibition of Aβ fibrillization at concentration 100 μM, Inhibition %, compound at 100 μM, Example 5, versus DMSO control
[5] = SIM-A9, read-out: TNF-α Inhibition
[6] = read-out: % inhibition of Aβ fibrillization (at 100 μ M), compound at 100 μM, Example 3
[7] = compound 2.7 μM, LPS stimulated SIM-A9 cells, read-out: TNF-α Inhibition
[8] = compound at 100 μM, Example 5, versus DMSO control

| Compound | IC50 [1] [µM] | inhibition at 100 µM (Aβ 1-40; [4]) [%] | inhibition at 2.7 µM (SIM-A9 cells; [5]) [%] | inhibition at 2.7 µM (SIM-A9 cells; [7]) [%] | other results |
| --- | --- | --- | --- | --- | --- |
| O=C(O)c1ccccc1NCc1ccccc1 [2-(benzylamino)benzoic acid] |  |  |  |  | Rescue of neuronal cells under Aβ-induced neurotoxicity / neuroinflammation (SH-SY5Y): able to rescue neuronal cells under Aβ-induced neurotoxicity |
| NS(=O)(=O)c1cc(C(=O)O)c(NCc2ccco2)cc1Cl [Furosemide, 4-Chloro-2-((furan-2-ylmethyl)amino)-5-sulfamoylbenzoic Acid, reference compound] | > 200 |  |  |  | inhibition at 100 µM (Aβ 1-40; [3]): 8.56%; Concentrations of anti-inflammatory cytokines (IL-4, IL-10, IL-1RA, Arginase; M2 indicators) [2]: increases the concentrations of anti-inflammatory cytokines |
| COc1ccc(C(O)C(F)(F)F)c(NCc2ccco2)c1 (stereo not drawn) [WW003, 2,2,2-trifluoro-1-(2-((furan-2-ylmethyl)amino)-4-methoxyphenyl) ethan-1-ol] | > 200 | 36.8 | 28 |  |  |
| COc1ccc(C(O)C(F)(F)F)c(NCc2cscn2)c1 (stereo not drawn) [WW005] | 130 ± 28.4 | 6.49 | 27 |  |  |
| OC(c1ccc(F)cc1NCc1ccco1)C(F)(F)F (stereo not drawn) [WW011, 2,2,2-Trifluoro-1-(4-fluoro-2-((furan-2-ylmethyl)amino)phenyl) ethan-1-ol] | 153 ± 48 | 5.14 | 25.9 |  |  |
| OC(c1ccc(Cl)cc1NCc1ccco1)C(F)(F)F (stereo not drawn) [WW013, 1-(4-Chloro-2-((furan-2-ylmethyl)amino)phenyl)-2,2,2-trifluoroethan-1-ol] | > 200 | 60.7 | 33 |  |  |
| OC(c1ccc(Br)cc1NCc1ccco1)C(F)(F)F (stereo not drawn) [WW016, 1-(4-Bromo-2-((furan-2-ylmethyl)amino)phenyl)-2,2,2-trifluoroethan-1-ol] | > 200 | 81 | 34.8 |  | inhibition at 100 µM (Aβ 1-40; [6]): 81.3% |
| OC(c1ccc(Br)cc1NCc1cscn1)C(F)(F)F (stereo not drawn) [WW017, 1-(4-Bromo-2-((thiazol-4-ylmethyl)amino)phenyl)-2,2,2-trofluoroethan-1-ol] | > 200 | 33 | 31 |  | inhibition at 100 µM (Aβ 1-40; [6]): 33% |
| OC(c1ccc(Cl)cc1NCc1cscn1)C(F)(F)F (stereo not drawn) [WW021, 1-(4-Chloro-2-((thiazol-4-ylmethyl)amino)phenyl)2,2,2-trifluoroethan-1-ol] | > 200 | 27.9 | 38 |  |  |
| O=C(O)c1cc(S(=O)(=O)N2CCCCC2)c(Cl)cc1NCc1ccco1 [WW096, 4-Chloro-2-((furan-2-ylmethyl)amino)-5-(piperidin-1-ylsulfonyl) Benzoic Acid] | > 200 |  |  | 11 | inhibition at 100 µM (Aβ 1-40; [3]): 19.1% |
| CNS(=O)(=O)c1cc(C(=O)OC)c(NCc2ccco2)cc1Cl [WW100] | 56 ± 26.6 |  |  | 31 | inhibition at 100 µM (Aβ 1-40; [3]): 27.1% |
| CNS(=O)(=O)c1cc(C(N)=O)c(NCc2ccco2)cc1Cl [WW101, 4-Chloro-2-((furan-2-ylmethyl)amino)-5-(N-methylsulfamoyl)benzamide] | 82.4 ± 28.5 |  |  | 27 | Inhibition of Aβ fibrillization at concentration 100 μM, Inhibition % (Aβ 1-40; [8]): Pro- fibrillization |
| CNC(=O)c1cc(S(=O)(=O)NC)c(Cl)cc1NCc1ccco1 [WW102, 4-Chloro-2-((furan-2-ylmethyl)amino)-N-methyl-5-(N-methylsulfamoyl)benzamide] | 103 ± 22.1 |  |  | 25 | Inhibition of Aβ fibrillization at concentration 100 μM, Inhibition % (Aβ 1-40; [8]): Pro- fibrillization |
